How the values were obtained:
[1] = system: Vascular smooth muscle cells from human aorta; assay: Growth inhibition of smooth muscle cells by full-length TFPI or TFPI lacking the C-terminal region (cell count, DME); format: cell-based; details: 50 μg/ml in DME, counted nine days after plating, 3 wells, Student's t-test
Method: Vascular smooth muscle cells from human aorta (purchased from Kurabo K.K.) were used and subjected to passage culture with Dulbecco modified Eagle medium (hereinafter referred to as "DME") supplemented with 10% fetal calf serum. The smooth muscle cells with six passages were used in the following experiment.
The smooth muscle cells suspended in DME were plated on a 48 well culture plate (manufactured by Iwaki Glass K.K.) at a cell density of 5,000 cells/well and incubated in CO2 incubator at 37° C. Two days after plating, the culture medium was exchanged with DME containing 50 μg/ml of full-length TFPI or 50 μg/ml of TFPI lacking the C-terminal region or with DME alone as a control and culture was continued in CO2 incubator at 37° C. while the culture medium was exchanged with a fresh medium on every 2 days. The culture medium was used at 0.3 ml/well. Nine days after plating, the cells attached to the plate were detached by treatment with a trypsin/EDTA solution and then a cell number per well was counted with a hemocytometer. FIG. 1 is a graph showing a mean cell number as well as a standard deviation for three wells in each group.

smooth muscle cells = assay: Cellular toxicity with Cytotox 96 kit; format: cell-based, human; details: Cytotox 96 kit (Promega)

In the case of “full-length TFPI: intact human tissue factor pathway inhibitor purified from culture supernatant of Chinese hamster ovary cell line”, the “activity to inhibit growth of smooth muscle cells (cell number per well vs control)” value [1] is reported as “significantly decreased cell number” and the cellular toxicity (smooth muscle cells) is reported as “did not exhibit cellular toxicity”.

Reference: patent US6191113A, “Peptide for inhibiting growth of smooth muscle cells” (Juridical Foundation The Chemo-Sero-Therapeutic Research …, priority 1995, dated 2001)
